Laboratory results published in patent US8470010B2, “Systems and methods for treating superficial venous malformations like spider veins” (Green Medical, Inc., priority 2006, dated 2013).

Legend:
[1] = tested on: superficial venous anatomy of the ears; experiment: Photodynamic treatment of superficial venous anatomy of rabbit ears (IV LS11, then 664 nm LED light); format: in vivo, New Zealand White Rabbits
Experimental: The superficial venous anatomy of the ears of New Zealand White Rabbits were treated by injecting light-reactive agent LS11 (Talaporfin Sodium) in doses selected to approximate a human dose, and thereafter exposing the superficial venous anatomy to light at a wavelength of 664 nm in dose periods ranging from 8 to 12 minutes.
A total of twelve rabbits were treated. Each rabbit (weighing approximately six pounds) was intravaneously sedated for approximately 25 minutes using Ketamine and secured to a treatment table before being treated. The ears were shaved clean of hair and skin prepped with alcohol.
LS11 (Talaporfin Sodium, from Light Sciences Oncology, Inc.) was selected as the light reactive agent 14. […] Different doses of LS11 (at a concentration of 0.125 mg per cc) were administered to different rabbits, at 0.25 mg/kg; 0.50 mg/kg; 1.0 mg/kg; and 1.5 mg/kg, respectively. The doses were selected to approximate a human dose of 3 mg/ml to 10 mg/ml (a dose of 0.2 to 0.5 mg/kg).
The doses were administered to each rabbit's ear intravenously in a slow bolus method over a period of 5 minutes. After a pre-selected delay of ten minutes following the injection, a light-applying carrier 60 of the type shown in FIG. 18A (with a linear array of three LED's) was laid on the head of the rabbit over the treated ear, which was held tight against the carrier (see FIG. 20). […]

cancer (solid tumors) = details: with array of light emitting diodes; preclinical and human clinical trials in United States, Europe and Japan; cited from earlier work

SMILES: C=Cc1c(C)c2cc3nc(c(CC(=O)N[C@@H](CC(=O)O)C(=O)O)c4[nH]c(cc5nc(cc1[nH]2)C(C)=C5CC)c(C)c4C(=O)O)[C@@H](CCC(=O)O)[C@@H]3C [LS11, mono-L-aspartyl chlorine e6]
- Visible alterations in the superficial venous anatomy (shrinkage of veins) in treated ear ([1]; IV 0.25, 0.50, 1.0 or 1.5 mg/kg, 664 nm light for 8 to 12 minutes, other ear as control): Visible alterations in the superficial venous anatomy due to shrinkage of veins in the treated regions were observed
- Alteration of superficial venous anatomy, treated ear vs control ear (FIG. 21) ([1]; LS11 dose 1.5 mg/kg IV, light dose 8 min of 664 nm light): visibly alter the superficial venous anatomy, due to shrinkage of veins in the targeted region
- Efficacy in treating cancer (solid tumors) (cancer (solid tumors)): has shown efficacy in treating cancer (solid tumors)
